This is an account of results in article PMC3556473, “Absorption, metabolism and excretion of [^14C]pomalidomide in humans following oral administration” (Cancer Chemotherapy and Pharmacology, 2012).

Values joined by “and” are separate entries in the source; they are usually repeats but may differ in a detail not shown here. Equal entries are not always repeated.

Data set [1] can be described thus: Plasma pharmacokinetics of pomalidomide and circulating metabolites by radiochromatography (metabolite profiling). Format: in vivo, human. Further details: AUC0–24 / AUC0−∞: concentration or dose not given beside the values. Conditions: for Plasma (% AUC relative to TRA): AUC0–24 (unchanged drug or metabolite)/AUC0–24 (TRA) * 100 %; for Tmax / half-life: human, oral, 2 mg; for Tmax: median and range; for half-life: male, read-out: t ½ (converted); for AUC/AUCTRA: plasma exposure relative to total radioactivity. As for the experimental part:
Individual plasma samples collected from all subjects at 1, 2.5, 4, 6, 10, 12 and 24 h post-dose were analyzed for metabolite profiling. Samples were extracted with acetonitrile, the supernatant was removed, and the pellet was washed with 0.1 % formic acid in water and extracted again with acetonitrile. The combined supernatants were adjusted to 15 or 25 mL by adding acetonitrile then evaporated to dryness under a stream of nitrogen. The residues were re-suspended in 0.1 % formic acid in water, assayed for extraction recovery and analyzed for metabolite profiling. A control plasma sample spiked with [^14C]pomalidomide was extracted in a similar manner to determine the extraction efficiency and stability of [^14C]pomalidomide.
(§1) HPLC analysis for metabolite profiling (HPLC Method 1) was performed using a Waters 2695 Alliance Separation Module (Waters Corp., Milford, MA) with the autosampler set to 4 °C. [^14C]Pomalidomide and metabolites were separated using an ACE C18 column (150 × 4.6 mm, 3 μm; Advanced Chromatography Technologies, Aberdeen, Scotland) equipped with an ACE C18 guard column (10 × 3 mm, 3 μm). The mobile phases used were 25 mM ammonium acetate in water: pH 5.5 with formic acid (mobile phase A) and methanol (mobile phase B). The column temperature was 30 °C, and the flow rate was 0.7 mL/min. The linear gradient was delivered as follows: 0–2 min 100 % A; 2–38 min to 64 % A; 38–44 min to 0 % A; 44–48 min hold at 0 % A; return to initial conditions over 2 min.
(§2) Radioactivity profiles for plasma and excreta were determined by collecting the column eluate into 96-well Deepwell LumaPlates™ at a rate of 0.25 min/fraction. The plates were dried and the radioactivity in each well determined using a PerkinElmer TopCount® NXT™ Microplate Scintillation Counter. HPLC radiochromatograms were reconstructed using LC-ARC data handling software.
For pomalidomide and metabolite concentrations in plasma based on metabolite profiling data, pharmacokinetic data were generated by non-compartmental analysis of plasma versus time profiles using WinNonlin (version 4.1, Enterprise Edition).

For the next data set, the system named is OPM-2 MM cell. Put plainly: Inhibition of MM cell proliferation ([3H]-thymidine incorporation, 3-day culture). The data set is classed as cell-based. Conditions: Homo sapiens. As for the experimental part:
(§3) Metabolites and hydrolysis products of pomalidomide were tested for pharmacological activity in the following three assay systems: (1) inhibition of MM cell proliferation, (2) enhancement of primary human T cell IL-2 production and (3) inhibition of TNF-α production by lipopolysaccharide (LPS)-stimulated human peripheral blood mononuclear cells (PBMC). For all three assay types, compounds were dissolved in 100 % dimethyl sulfoxide (DMSO) and diluted into complete cell culture medium, consisting of Roswell Park Memorial Institute (RPMI)-1640 plus penicillin, streptomycin and L-glutamine (Mediatech, Manassas, VA). The MM cell proliferation cell culture medium contained 10 % fetal bovine serum, while the primary human cell cultures contained 10 % human AB serum (Invitrogen, Brown Deer, WI). The final DMSO concentration in the cell culture media was 0.25 %.
(§4) The human MM cell line OPM-2 was obtained from DSMZ (Braunschweig, Germany), and human MM cell lines U266 B1 and NCI-H929 were obtained from ATCC (Manassas, VA). Inhibition of MM cell proliferation was assessed by the [^3H]-thymidine incorporation assay in a 3-day culture in the presence of compounds in complete medium, as previously described. Primary human T cells were isolated from PBMC by negative selection using the RosetteSep T Cell Enrichment Cocktail (STEMCELL Technologies, Tukwila, WA) according to the manufacturer’s procedures. Costimulation of T cell IL-2 production was measured in a 2-day culture of primary human T cells isolated from healthy donors stimulated with anti-CD3 antibody in the presence of compounds, as previously described. Inhibition of TNF-α production by LPS-stimulated human PBMC was measured in a 1-day culture in the presence of compound, as previously described.

Another data set deals with H929 MM cell. Described as above. Format: cell-based. Particulars: Homo sapiens, NCI-H929. As for the experimental part:
as §3, §4

Another data set deals with U266 MM cell. The data set is described as above. The data set is classed as cell-based. Conditions: Homo sapiens, U-266. As for the experimental part: as §3, §4
Data set [2] is described as follows: Metabolite profiling of urine and feces (% of dose excreted). The data set is classed as in vivo, human. Conditions: for % of dose excreted, Feces: pooled feces 0–96 h; for % of dose excreted, Feces / % of dose excreted, Urine: radiochromatography; for % of dose excreted, Urine: pooled urine 0–72 h. As for the experimental part: For each subject, urine samples were pooled using an equal percentage by volume of the 0–6, 6–12, 12–24, 24–48 and 48–72 h samples. Pools of the 0–6, 6–12, 12–24, 24–48 and 48-72 h collections were also prepared across subjects and analyzed for metabolite profiling. Samples were mixed and centrifuged prior to the supernatants being transferred to fresh tubes for metabolite profiling analysis.
For each subject, fecal homogenates for metabolite profiling were pooled using an equal percentage by weight of the 0–24, 24–48, 48–72 and 72–96 h samples. Pools of the 0–24, 24-48, 48–72 and 72–96 h collections were also prepared across subjects and analyzed for metabolite profiling. An aliquot of each pool was extracted with acetonitrile; samples were mixed and centrifuged. The supernatant was removed and the pellets re-suspended with 0.1 % formic acid and extracted with acetonitrile. The combined supernatants were evaporated to dryness under a stream of nitrogen and the residue re-suspended in methanol:0.1 % formic acid in water (1:1). Samples were assayed for extraction recovery prior to metabolite profiling. A control fecal homogenate spiked with [^14C]pomalidomide was extracted in a similar manner to determine the extraction efficiency and stability of [^14C]pomalidomide.
as §1, §2

The mark [3] stands for this setting: plasma, plasma, radiochromatography, geometric mean (%CV).
Setting [4] is: plasma, radiochromatography, geometric mean (%CV).

For the compound `Nc1cccc2c1C(=O)N(C1CCC(=O)NC1=O)C2=O` (racemic) [Pomalidomide, (RS)-4-amino-2-(2,6-dioxo-piperidin-3-yl)-isoindoline-1,3-dione], in data set [1], the “Plasma (% AUC relative to TRA)” value is 69.6%; the AUC/AUCTRA was 70% and 69.6%. Moreover, the Tmax (in general, the time at which the peak concentration occurs) in data set [1] (plasma, radiochromatography) came to 2.5 h. Further, the half-life in data set [1] (setting [3]) was 9.4 h. For the same compound, the AUC/AUCTRA result in data set [1] (listed as pomalidomide) is “approximately 70%”. Besides, in data set [1] (setting [4]), the “AUC0–24” value is 135 (33.4) ngEq*h/mL, the “AUC0−∞” value is on record as 165 (43.2) ngEq*h/mL, the C max is 11.0 (22.5) ngEq/mL and the “t ½” value was 9.41 (25.0) h. In addition, in the data set on OPM-2 MM cell, the IC50 (in general, the concentration needed to halve the response being measured) turned out to be 38 nM. In the data set on H929 MM cell, this compound came in with an IC50 of 35 nM. This compound showed a half-inhibitory concentration (IC50) with U266 MM cell of 28 nM. In data set [2] (pomalidomide, this study), the “Percent dose excreted in human urine, Parent” value is given as 2.2% and the “Percent dose excreted in human urine, Total” value worked out at 72.8%. In data set [2], the “% of dose excreted, Feces” value is on record as 7.7% and the “% of dose excreted, Urine” value worked out at 2.2%. Also, in data set [2] (listed as pomalidomide), the “% of dose excreted, Feces” value is 8%. The “dose excreted as unchanged drug (excreta)” value in data set [2] (urine + feces, % of the dose) is 10%.

Take `Nc1c(O)ccc2c1C(=O)N(C1CCC(=O)NC1=O)C2=O` (stereo not drawn) [Metabolite M17, 5-hydroxy pomalidomide]: in data set [1], the “Plasma (% AUC relative to TRA)” value stood at 4.0% and the AUC/AUCTRA is reported as 4.00%. For the same compound, the Tmax in data set [1] (plasma, radiochromatography) came out at 2.5 h. The half-life in data set [1] (setting [3]) was 11 h. Also, in data set [1] (setting [4]), the “AUC0–24” value was 7.76 (24.8) ngEq*h/mL, the “AUC0−∞” value is given as 11.5 (36.9) ngEq*h/mL and the C max was 0.68 (33.3) ngEq/mL. The compound also had an IC50 with OPM-2 MM cell above 1000 nM. This compound also came in with an IC50 with H929 MM cell above 1000 nM. Moreover, the IC50 in the data set on U266 MM cell was above 1000 nM. For the same compound, in data set [2], the “% of dose excreted, Feces” value is 2.8% and the “% of dose excreted, Urine” value is on record as 3.2%.
